The nature of series [1]: Solid form stability of Compound 1 mesylate forms. The format is physicochemical.
Series [2] can be described thus: Dissolution Assay in Fasted Simulated Gastric Fluid. The format is physicochemical. The settings on record: Fasted Simulated Gastric Fluid (FaSSGF), 37° C. Here is the method:
The dissolution bath was filled with 900 mL of media for testing, the bath temperature held at 37° C., the rotation rate of the apparatus was 50 rpm, the draw point for the sampling probe was set exactly halfway between the surface of the media and the surface of the disc. The test article (0.4 g) was compressed into a disc using a Woods apparatus. The sampling time points were 10, 30, 60, 90, 120, 150 & 180. The samples were analysed by HPLC for concentration against a sample preparation of known concentration (ca. 0.5 mg/ml). Dissolution rate was derived from the curve of concentration against time.

On to `CS(=O)(=O)O.O=C1NCc2nc(-c3c(F)cccc3F)cc(Nc3ccc(C(=O)N4CCCC4)cc3)c21` [Form III], for which the solid form stability result in series [1] (upon drying under ambient conditions) is “transition to Form IV”.

With `CS(=O)(=O)O.O=C1NCc2nc(-c3c(F)cccc3F)cc(Nc3ccc(C(=O)N4CCCC4)cc3)c21` [Form IV], the solid form stability result in series [1] (ambient conditions) is “stable at ambient conditions”.

As for `CS(=O)(=O)O.O=C1NCc2nc(-c3c(F)cccc3F)cc(Nc3ccc(C(=O)N4CCCC4)cc3)c21` [Form V], the solid form stability entry in series [1] (upon grinding) is “transition to Form I”.

Regarding `O=C1NCc2nc(-c3c(F)cccc3F)cc(Nc3ccc(C(=O)N4CCOCC4)cc3)c21` [Compound 9], the dissolution rate in series [2] was 21.2 μg/cm^2/min.

`O=C1NCc2nc(-c3c(F)cccc3F)cc(Nc3ccc(C(=O)N4CCCC4)cc3)c21` [Compound 1] came in with a dissolution rate in series [2] of 57.5 μg/cm^2/min.

(Values after patent US11040967B2, “TYK2 inhibitors, uses, and methods for production thereof” (Nimbus Lakshmi, Inc., priority 2017, dated 2021).)
